From publication PMC6705855, “Computational and experimental elucidation of Plasmodium falciparum phosphoethanolamine methyltransferase inhibitors: Pivotal drug target” (PLoS ONE, 2019) come the findings set out here.

Read-outs that look alike come from different tables or passages of the source.

For data set [1], the target named is T1, Phosphoethanolamine methyltransferase (PfPMT) (Plasmodium falciparum, UniProt Q8IDQ9).
T1 construct: gene PMT; recombinant PfPMT expressed from pET-24a in BL21 (DE3), ~30 kDa
T1 sequence (Q8IDQ9 1-266): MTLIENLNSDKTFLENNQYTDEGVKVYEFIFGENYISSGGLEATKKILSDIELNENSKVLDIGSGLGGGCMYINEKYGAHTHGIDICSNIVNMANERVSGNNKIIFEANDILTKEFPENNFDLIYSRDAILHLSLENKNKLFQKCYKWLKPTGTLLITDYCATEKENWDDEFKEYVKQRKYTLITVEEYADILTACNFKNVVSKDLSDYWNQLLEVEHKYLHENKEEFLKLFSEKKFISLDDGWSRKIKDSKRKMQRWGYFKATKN
As to the kind of experiment: enzyme-coupled SAM methyltransferase colorimetric assay ([…] nm), Michaelis-Menten kinetics with varied pEth. Format: biochemical.

Substrate in the data set “purified protein”: NCCOP(=O)(O)O
As to the kind of experiment: purified protein. Format: biochemical, Plasmodium falciparum. The following applies: SAM substrate (phosphobase) site.

In turn, `NC(Cc1cc(=O)nc(-c2ccccn2)[nH]1)c1ccc(F)cc1` (stereo not drawn) [ASN.1, 6-[Amino-2-(4-fluoro-phenyl)-ethyl]-pyridin-2-yl-1H-pyrimidin-4-one] yielded an inhibition constant Ki in data set [1] of 1200 nM. Consider `COc1ccc(CCNC(=O)CNCC2CCCO2)cc1OC` (stereo not drawn) [ASN.3, N-[2-(3,4-Dimethoxy-phenyl)-ethyl]-2-[(tetrahydro-furan-2-ylmethyl)-amino]-acetamide], for which, in data set [1] (read-out: Ki), the Ki was found to be 2200 nM.

B1: Phosphoethanolamine methyltransferase (PfPMT) (Plasmodium falciparum 3D7) (protein)
chain: MTLIENLNSDKTFLENNQYTDEGVKVYEFIFGENYISSGGLEATKKILSDIELNENSKVLDIGSGLGGGCMYINEKYGAHTHGIDICSNIVNMANERVSGNNKIIFEANDILTKEFPENNFDLIYSRDAILHLSLENKNKLFQKCYKWLKPTGTLLITDYCATEKENWDDEFKEYVKQRKYTLITVEEYADILTACNFKNVVSKDLSDYWNQLLEVEHKYLHENKEEFLKLFSEKKFISLDDGWSRKIKDSKRKMQRWGYFKATKN
notes: recombinant PfPMT expressed from pET-24a in BL21 (DE3), ~30 kDa
B1: in the data set “purified protein”, the Km was 52.4 µM.

The term Ki denotes the dissociation constant of the complex between target and ligand, obtained from inhibition or displacement. By Km is commonly meant the concentration of substrate that gives half-maximal velocity.
